According to PMC12631831, “Painting Peptides With Antimicrobial Potency Through Deep Reinforcement Learning” (Advanced Science, 2025):
Ends that are not written are not given here.

Legend:
[1] = test system: human erythrocytes; settings: ref DBAASP; cited from earlier work
[2] = test system: P.aeruginosa ATCC9027; settings: ATCC9027, 18 h
Protocol: (§1) Four standard bacteria used for the MIC test were Escherichia coli ATCC25922, Pseudomonas aeruginosa ATCC9027, Staphylococcus aureus ATCC6538, and Bacillus subtilis ATCC6633. The testing procedures followed the Hancock methods.^[ [67] ^] The peptides were diluted in sterilized PBS to 512 µM as storage solutions. Then twofold gradient dilution was performed to make different concentrations (128, 64, 32, 16, 8, 4, 2, 1, 0.5, 0.25, and 0.125 µM) of AMPs. Each bacteria was incubated in LB broth at 37 °C until its absorbance at 625 nm reached 0.08–0.10, then diluted 10,000 times and added into a sterile 96‐well polypropylene plate (Grenier, #655201). A co‐incubation system included 100 µL peptide solution and 100 µL bacterial suspension.

[3] = test system: B.subtilis ATCC6633; settings: ATCC6633, 18 h
Protocol: as §1

[4] = test system: S.aureus ATCC6538; settings: ATCC6538, 18 h
Protocol: as §1

[5] = test system: E.coli ATCC25922; settings: ATCC25922, 18 h
Protocol: as §1

[6] = test system: rat erythrocytes; assay: Hemolysis assay; settings: rat RBC 10% in PBS, 37 °C, 1 min, 1-128 µM, absorbance 450 nm, triplicate, fitted with GraphPad Prism 8
Protocol: In vitro hemolysis and cytotoxicity were measured by WuXi AppTec Co., ltd. The rat blood was collected and mixed in PBS, then centrifuged at 500 g for 5 mins to make the red blood cell solution (RBC, 10%). Two‐fold gradient dilution was performed to obtain different concentrations (128, 64, 32, 16, 8, 4, 2, and 1 µM) of AMP solutions. Then AMP solutions were added into 100 µL RBC to make the test solution and incubated at 37 °C for 1 min. The assay solution was centrifuged at 2500 g for 6 mins. After centrifugation, the 75 µL supernatant was placed into a 96‐well plate. PBS was used as the vehicle control and 0.1% Triton X‐100 was the positive control. The absorbance of the supernatant in each well was detected at 450 nm using EnVison (PerkinElmer) and the percentage of hemolysis was calculated as Equation (15). The HC25 value was fitted using GraphPad Prism 8. All tests were performed in triplicate. (15) Hemolysis%=AbsAMP−AbsPBS/AbsTritonX−100−AbsPBS×100

[7] = test system: HEK293T cells; assay: Cytotoxicity assay (CellTiter-Glo); format: cell-based, human; settings: 72 h, 1-128 µM, triplicate
Protocol: HEK293T cells were cultured in DMEM supplemented with 10% FBS and incubated at 37 °C with 5% CO2. After planting the cells into a 96‐well plate and incubated overnight, AMP solutions were added. The gradient dilution of AMPs followed the same setting as mentioned in the hemolysis assay. Staurosporine (STS) was used as a positive control and PBS as vehicle control. STS was diluted to 60, 12, 2.4, 0.48, 0.1, 0.02, 0.0038, and 0.0008 µM. After incubation for 72 h, the CellTiter‐Glo®Luminescent assay was performed to evaluate the cell viability. After equilibration to room temperature, the 96‐well plate containing treated cells was loaded with 100 µL CellTiter Glo (CTG, Promega) reagent each well. The plate was incubated for 30 mins, then detected by the EnVision system at a […]. Data were fitted and analyzed with GraphPad Prism 8. All tests were performed in triplicate.

AFHHIFRGIVHVGKTIHRLVTG [Piscidin 1 [F1A], reference compound]
Concentration for 100% hemolysis [1]: 100 µM
MIC P.aeruginosa [2]: > 128 µM
MIC B.subtilis [3]: 4 µM
MIC S.aureus [4]: 4 µM
MIC E.coli [5]: 16 µM

DGWTMVKARYIKRFMRGLRGFHIKAA [2-1]
MIC P.aeruginosa ATCC9027 [2]: > 128 µM
MIC B.subtilis ATCC6633 [3]: 8 µM
MIC S.aureus ATCC6538 [4]: 16 µM
MIC E.coli ATCC25922 [5]: 8 µM

FFHHIFRKIHHVFKKIHRLFHH [A09]
MIC P.aeruginosa ATCC9027 [2]: > 128 µM
MIC B.subtilis ATCC6633 [3]: 4 µM
MIC S.aureus ATCC6538 [4]: 8 µM
MIC E.coli ATCC25922 [5]: 64 µM

GIKKWIKGAIKKLIKKVAKWIWKQ [A07]
MIC P.aeruginosa ATCC9027 [2]: 16 µM
MIC B.subtilis ATCC6633 [3]: 0.5 µM
MIC S.aureus ATCC6538 [4]: 2 µM
MIC E.coli ATCC25922 [5]: 8 µM

GIKKWIKGWAKKLIKKVAKKIAKQ [A05]
MIC P.aeruginosa ATCC9027 [2]: 4 µM
MIC B.subtilis ATCC6633 [3]: 0.25 µM
MIC S.aureus ATCC6538 [4]: 1 µM
MIC E.coli ATCC25922 [5]: 0.5 µM

GILFLKRLRILGIGKLLLLKR [S05]
MIC P.aeruginosa ATCC9027 [2]: > 128 µM
MIC B.subtilis ATCC6633 [3]: 64 µM
MIC S.aureus ATCC6538 [4]: 128 µM
MIC E.coli ATCC25922 [5]: > 128 µM

GRKKRRRRRRGGWWWKLGLRWF [A08]
MIC P.aeruginosa ATCC9027 [2]: > 128 µM
MIC B.subtilis ATCC6633 [3]: 64 µM
MIC S.aureus ATCC6538 [4]: 64 µM
MIC E.coli ATCC25922 [5]: > 128 µM

IFHHIFRGIHHIFKGIHRLWKR [A02]
MIC P.aeruginosa ATCC9027 [2]: > 128 µM
MIC B.subtilis ATCC6633 [3]: 4 µM
MIC S.aureus ATCC6538 [4]: 4 µM
MIC E.coli ATCC25922 [5]: 64 µM

IKRRIRRRPIRRRQRR [S06]
MIC P.aeruginosa ATCC9027 [2]: > 128 µM
MIC B.subtilis ATCC6633 [3]: > 128 µM
MIC S.aureus ATCC6538 [4]: 128 µM
MIC E.coli ATCC25922 [5]: > 128 µM

KKQVKWLLKVWKKVGIKLGAKLPVWK [S01]
MIC P.aeruginosa ATCC9027 [2]: 64 µM
MIC B.subtilis ATCC6633 [3]: 2 µM
MIC S.aureus ATCC6538 [4]: 2 µM
MIC E.coli ATCC25922 [5]: 16 µM

KLKIKFKFHLKLFGLF [S09]
MIC P.aeruginosa ATCC9027 [2]: > 128 µM
MIC B.subtilis ATCC6633 [3]: > 128 µM
MIC S.aureus ATCC6538 [4]: 128 µM
MIC E.coli ATCC25922 [5]: > 128 µM

KLYKYKYRKVYKKQRRR [R09]
MIC P.aeruginosa ATCC9027 [2]: > 128 µM
MIC B.subtilis ATCC6633 [3]: > 128 µM
MIC S.aureus ATCC6538 [4]: 64 µM
MIC E.coli ATCC25922 [5]: > 128 µM

KQQRKRGRVRKALLGKVIGFGGLKLKG [S08]
HC25 (concentration that causes 25% hemolysis) [6]: > 128 µM
CC50 (concentration that reduces viability by 50%) [7]: > 128 µM

KWFFKWFRKHFLKWMRQYFHK [R02]
MIC P.aeruginosa ATCC9027 [2]: 64 µM
MIC B.subtilis ATCC6633 [3]: 4 µM
MIC S.aureus ATCC6538 [4]: 8 µM
MIC E.coli ATCC25922 [5]: 128 µM

KWWKRRRWRWRWKKLWK [A04]
HC25 (concentration that causes 25% hemolysis) [6]: > 128 µM
CC50 (concentration that reduces viability by 50%) [7]: 49.63 µM

LWRWKLLGRISVIIGKIKAALRLWF [R06]
MIC P.aeruginosa ATCC9027 [2]: > 128 µM
MIC B.subtilis ATCC6633 [3]: > 128 µM
MIC S.aureus ATCC6538 [4]: > 128 µM
MIC E.coli ATCC25922 [5]: > 128 µM

QPKKPYKPIYKKVRGVLIPFKRV [R10]
MIC P.aeruginosa ATCC9027 [2]: > 128 µM
MIC B.subtilis ATCC6633 [3]: > 128 µM
MIC S.aureus ATCC6538 [4]: > 128 µM
MIC E.coli ATCC25922 [5]: > 128 µM

RGWFKVKMRYIKRFMRGLRGFHIKAA [2-6]
MIC P.aeruginosa ATCC9027 [2]: 16 µM
MIC B.subtilis ATCC6633 [3]: 2 µM
MIC S.aureus ATCC6538 [4]: 1 µM
MIC E.coli ATCC25922 [5]: 4 µM

RGWFKVKRRYIKRFMRGLRGFHIKAA [R04]
MIC P.aeruginosa ATCC9027 [2]: 8 µM
MIC B.subtilis ATCC6633 [3]: 1 µM
MIC S.aureus ATCC6538 [4]: 0.5 µM
MIC E.coli ATCC25922 [5]: 2 µM
CC50 (concentration that reduces viability by 50%) [7]: 23.59 µM

RGWTMVKARYIKRFMRGLRGFHIKAA [2-2]
MIC P.aeruginosa ATCC9027 [2]: 128 µM
MIC B.subtilis ATCC6633 [3]: 2 µM
MIC S.aureus ATCC6538 [4]: 2 µM
MIC E.coli ATCC25922 [5]: 4 µM

RKRVVWGKIFFRRR [S04]
MIC B.subtilis ATCC6633 [3]: 64 µM
MIC E.coli ATCC25922 [5]: 64 µM

RLKIHLYIKHYRRPKIVIRLKIK [R01]
MIC P.aeruginosa ATCC9027 [2]: > 128 µM
MIC B.subtilis ATCC6633 [3]: > 128 µM
MIC S.aureus ATCC6538 [4]: 128 µM
MIC E.coli ATCC25922 [5]: > 128 µM

RRLRRLRILLFLKRVLRR [S02]
HC25 (concentration that causes 25% hemolysis) [6]: > 128 µM
CC50 (concentration that reduces viability by 50%) [7]: > 128 µM

RWRKWRRWWWRKKKLGF [A06]
HC25 (concentration that causes 25% hemolysis) [6]: > 128 µM
CC50 (concentration that reduces viability by 50%) [7]: 71.09 µM

RWWRGWWRRKLKKLRKKLKKKLKGM [A01]
HC25 (concentration that causes 25% hemolysis) [6]: 14.66 µM
CC50 (concentration that reduces viability by 50%) [7]: 11.62 µM

VKKRLLFRKPLLKLFLLFGRRLKA [S07]
HC25 (concentration that causes 25% hemolysis) [6]: > 128 µM
CC50 (concentration that reduces viability by 50%) [7]: 22.12 µM

WIPKRFGIVIKRFYYRPFYPLFQ [R07]
MIC P.aeruginosa ATCC9027 [2]: > 128 µM
MIC B.subtilis ATCC6633 [3]: > 128 µM
MIC S.aureus ATCC6538 [4]: 128 µM
MIC E.coli ATCC25922 [5]: > 128 µM

WKKWRWWWRWKKLWW [A10]
HC25 (concentration that causes 25% hemolysis) [6]: 30.13 µM
CC50 (concentration that reduces viability by 50%) [7]: 51.11 µM

WRWKGRWRRKLKKLRWKLKKKLKLG [A03]
HC25 (concentration that causes 25% hemolysis) [6]: > 128 µM
CC50 (concentration that reduces viability by 50%) [7]: 21.67 µM

WVQKKVIKLILKGLFALKLLG [S03]
MIC P.aeruginosa ATCC9027 [2]: > 128 µM
MIC B.subtilis ATCC6633 [3]: > 128 µM
MIC S.aureus ATCC6538 [4]: 128 µM
MIC E.coli ATCC25922 [5]: > 128 µM
HC25 (concentration that causes 25% hemolysis) [6]: > 128 µM
CC50 (concentration that reduces viability by 50%) [7]: > 64 µM

WWWHLRIWLKKKHQKAQWKKFGWFMKQHH [R05]
MIC P.aeruginosa ATCC9027 [2]: 128 µM
MIC B.subtilis ATCC6633 [3]: 8 µM
MIC S.aureus ATCC6538 [4]: 2 µM
MIC E.coli ATCC25922 [5]: > 128 µM

YKGFWRKIIYLIMMHAMKFMVWFLHLPKQ [R08]
MIC P.aeruginosa ATCC9027 [2]: > 128 µM
MIC B.subtilis ATCC6633 [3]: > 128 µM
MIC S.aureus ATCC6538 [4]: > 128 µM
MIC E.coli ATCC25922 [5]: > 128 µM

YWRRWYIWRWRRWRWLRYI [R03]
MIC P.aeruginosa ATCC9027 [2]: > 128 µM
MIC B.subtilis ATCC6633 [3]: 128 µM
MIC S.aureus ATCC6538 [4]: 128 µM
MIC E.coli ATCC25922 [5]: > 128 µM
